For one assay, the system named is KYSE-450. The experiment in a line: Antiproliferative activity against human KYSE-450 cells by MTT assay. Type of assay: functional, cell-based. (Formazan colour is commonly taken as a measure of viable cells.)
In the next assay the test system is K562. The experiment in a line: Antiproliferative activity against human K562 cells by MTT assay. The assay is classed as functional, cell-based.
In the next assay the test system is PC-3. The experiment in a line: Antiproliferative activity against human PC-3 cells by MTT assay. The assay is classed as functional, cell-based.
The subject of another assay is MCF7. Kind of assay: Antiproliferative activity against human MCF7 cells by MTT assay. The assay is classed as functional, cell-based.
A further assay has as its system A549. The experiment in a line: Antiproliferative activity against human A549 cells by MTT assay. Type of assay: functional, cell-based.
The next assay relates to HCT-116. Kind of assay: Antiproliferative activity against human HCT-116 cells by MTT assay. The assay is classed as functional, cell-based.
In another assay the test system is NCI-H1299. The experiment in a line: Antiproliferative activity against human NCI-H1299 cells by MTT assay. Type of assay: functional, cell-based.
Assay [1] can be described thus: Antiproliferative activity against human SKGT4 cells by MTT assay. The assay is classed as functional, cell-based.
The next assay deals with PANC-1. Kind of assay: Antiproliferative activity against human PANC-1 cells by MTT assay. Type of assay: functional, cell-based.
For another assay, the system named is MDA-MB-231. The experiment in a line: Antiproliferative activity against human MDA-MB-231 cells by MTT assay. The assay is classed as functional, cell-based.
A further assay deals with NCI-H460. The experiment in a line: Antiproliferative activity against human NCI-H460 cells by MTT assay. The assay is classed as functional, cell-based.
Assay [2] can be described thus: Antiproliferative activity against human QGY-7701 cells by MTT assay. Type of assay: functional, cell-based. Conditions: QGY7701.
Another assay has as its system BGC-823. Kind of assay: Antiproliferative activity against human BGC-823 cells by MTT assay. The assay is classed as functional, cell-based.
Another assay has as its system A-375. Kind of assay: Antiproliferative activity against human A-375 cells by MTT assay. Type of assay: functional, cell-based.
The test system of the next assay is HL-60. Kind of assay: Antiproliferative activity against human HL-60 cells by MTT assay. Type of assay: functional, cell-based.
Another assay relates to U2OS. Kind of assay: Antiproliferative activity against human U2OS cells by MTT assay. Type of assay: functional, cell-based.
The next assay concerns A-431. Kind of assay: Antiproliferative activity against human A-431 cells by MTT assay. The assay is classed as functional, cell-based.
The next assay deals with HepG2. The experiment in a line: Antiproliferative activity against human HepG2 cells by MTT assay. Type of assay: functional, cell-based.
A further assay concerns the target Protein smoothened (Homo sapiens, UniProt Q99835). Kind of assay: Agonist activity at SMO receptor (unknown origin).
Assay [3] can be described thus: (§1) Anti-osteoporosis activity against C57BL/6J mouse BMSC cells assessed as increase in osteogenic mineralization incubated for 14 days by Alizarin Red S staining based analysis. The assay is classed as functional. As to conditions: 336 h, time 14 day, read-out: MEC.
In assay [4] the test system is BMSC. The description is as §1. The assay is classed as functional. As to conditions: time 14.0 day.
A short description of assay [5]: Inhibition of adipogenic differentiation in C57BL/6J mouse BMSC cells at 20 uM measured after 6 days by Oil Red O staining based light microscopy. The assay is classed as functional. Conditions: 144 h, time 6 day.
Assay [6] deals with BMSC. The experiment in a line: Anti-osteoporosis activity against C57BL/6J mouse BMSC cells assessed as increase in matrix mineralization of osteoblasts at 20 uM incubated for 14 days by Alizarin Red S staining based analysis. The assay is classed as functional, cell-based. As to conditions: time 14.0 day.
Assay [7] can be described thus: Inhibition of adipogenic differentiation in C57BL/6J mouse BMSC cells at 5 uM measured after 6 days by Oil Red O staining based light microscopy. Type of assay: functional. Conditions: 144 h, time 6 day.

pEC50, pIC50: −log10 of the molar value. The source made the active and inactive calls. No cut-off for these calls is given here.

Protein smoothened, sequence (Q99835 whole entry): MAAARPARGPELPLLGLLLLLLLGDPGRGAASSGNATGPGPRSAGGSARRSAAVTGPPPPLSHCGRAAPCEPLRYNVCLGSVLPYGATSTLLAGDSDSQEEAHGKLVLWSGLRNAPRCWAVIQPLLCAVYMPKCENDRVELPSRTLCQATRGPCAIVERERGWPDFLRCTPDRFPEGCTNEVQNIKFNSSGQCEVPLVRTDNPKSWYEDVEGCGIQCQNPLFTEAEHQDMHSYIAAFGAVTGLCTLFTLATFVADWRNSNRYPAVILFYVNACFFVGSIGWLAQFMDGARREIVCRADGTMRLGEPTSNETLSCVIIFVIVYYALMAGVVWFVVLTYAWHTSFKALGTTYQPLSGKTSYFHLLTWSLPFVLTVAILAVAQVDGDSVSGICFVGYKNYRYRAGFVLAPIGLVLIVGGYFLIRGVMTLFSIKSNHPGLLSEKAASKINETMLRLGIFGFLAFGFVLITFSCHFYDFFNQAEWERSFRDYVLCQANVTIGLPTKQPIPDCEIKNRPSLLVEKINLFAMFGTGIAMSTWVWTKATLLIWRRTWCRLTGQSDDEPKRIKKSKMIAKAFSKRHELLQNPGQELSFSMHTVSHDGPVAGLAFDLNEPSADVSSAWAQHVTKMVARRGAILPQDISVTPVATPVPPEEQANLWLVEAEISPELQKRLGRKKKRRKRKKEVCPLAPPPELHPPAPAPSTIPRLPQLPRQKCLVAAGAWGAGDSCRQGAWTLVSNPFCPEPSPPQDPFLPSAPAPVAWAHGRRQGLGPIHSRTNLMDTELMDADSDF

As to `CO[C@@H](/C=C(\C)[C@H]1CC[C@H]2C3=CC(=O)[C@H]4CC(=CC[C@H](O)C4)[C@H]3CC[C@]12C)[C@@H](C)O`, the pIC50 with KYSE-450, in the assay on K562, in the assay on PC-3, with MCF7, in the assay on A549 and in the assay on HCT-116 was less than 4.70 throughout. The negative logarithm of the IC50 (pIC50) (in the assay on NCI-H1299; in assay [1]; with PANC-1; in the assay with MDA-MB-231; with NCI-H460; in assay [2]) was less than 4.70 each time. In addition, the negative-log IC50 (pIC50) with BGC-823, in the assay with A-375, in the assay with HL-60, with U2OS, in the assay with A-431 and with HepG2 was less than 4.70 each time.
Turning to `COC(/C=C(\C)[C@H]1CC[C@H]2C3=CC(=O)[C@H]4CC(=CC[C@H](O)C4)[C@H]3CC[C@]12C)C(C)O` (stereo not given in full), the pIC50 in the assay with KYSE-450, with K562, in the assay with PC-3, in the assay with MCF7, in the assay on A549 and with HCT-116 was less than 4.70 in each case. Further, the pIC50 (in the assay on NCI-H1299; in assay [1]; with PANC-1; in the assay with MDA-MB-231; in the assay on NCI-H460; in assay [2]) was less than 4.70 throughout. Moreover, the pIC50 in the assay with BGC-823, with A-375, with HL-60, in the assay on U2OS, with A-431 and with HepG2 was less than 4.70 throughout.
Regarding `C[C@]12CC[C@@H]3C4=CC[C@H](O)C[C@H](C4)C(=O)C=C3[C@@H]1CC[C@@H]2[C@](C)(O)CC(=O)O`, the negative-log IC50 (pIC50) with KYSE-450, in the assay with K562, with PC-3, with MCF7, in the assay on A549 and in the assay on HCT-116 was less than 4.70 in each case. The pIC50 (with NCI-H1299; in assay [1]; in the assay on PANC-1; with MDA-MB-231; in the assay on NCI-H460; in [2]) was less than 4.70 each time. The negative-log IC50 (pIC50) in the assay on BGC-823, with A-375, in the assay with HL-60, in the assay with U2OS, in the assay on A-431 and in the assay on HepG2 was less than 4.70 in each case.
On to `c1ccc2c(Oc3nc(Nc4ccc(N5CCOCC5)cc4)c4ncn(C5CCCCC5)c4n3)cccc2c1` [PURMORPHAMINE], for which the negative logarithm of the EC50 (pEC50) (commonly −log10 of the EC50, conventionally taken in molar units) on Protein smoothened is 6.00.
For `C/C=C/[C@H](O)[C@](C)(O)[C@H]1CC[C@H]2C3=CC(=O)[C@H]4CC(=CC[C@H](O)C4)[C@H]3CC[C@]12C`, the negative logarithm of the IC50 (pIC50) with KYSE-450, in the assay with K562, in the assay on PC-3, in the assay on MCF7, in the assay with A549 and in the assay on HCT-116 was less than 4.70 throughout. Moreover, the pIC50 (in the assay with NCI-H1299; in [1]; in the assay with PANC-1; with MDA-MB-231; with NCI-H460; in assay [2]) was less than 4.70 in each case. For the same compound, the negative logarithm of the IC50 (pIC50) with BGC-823, in the assay on A-375, in the assay on HL-60, in the assay with U2OS, with A-431 and in the assay on HepG2 was less than 4.70 each time.
Turning to `C/C(=C/[C@H](O)[C@H](C)O)[C@H]1CC[C@H]2C3=CC(=O)[C@H]4CC(=CC[C@H](O)C4)[C@H]3CC[C@]12C`, the negative-log IC50 (pIC50) with KYSE-450, in the assay on K562, in the assay with PC-3, in the assay on MCF7, in the assay on A549 and in the assay on HCT-116 was less than 4.70 throughout. Moreover, the pIC50 (with NCI-H1299; in assay [1]; in the assay on PANC-1; with MDA-MB-231; with NCI-H460; in [2]) was less than 4.70 throughout. Besides, the pIC50 in the assay with BGC-823, with A-375, with HL-60, in the assay on U2OS, in the assay on A-431 and in the assay on HepG2 was less than 4.70 in each case. Moreover, the minimal effective concentration in assay [3] worked out at 20 µM. Moreover, the Activity result with BMSC [4] is “Dose-Dependent Effect”. Besides, the inhibition (in general, the change of the read-out against control, counted positive when it falls) at 20 µM in [5] worked out at 65%. For the same compound, in the assay on BMSC [6], the result was Active.
For `CC(=O)/C=C/[C@@](C)(O)[C@H]1CC[C@H]2C3=CC(=O)[C@H]4CC(=CC[C@H](O)C4)[C@H]3CC[C@@]21C`, the negative-log IC50 (pIC50) with KYSE-450, in the assay on K562, with PC-3, in the assay on MCF7, in the assay with A549 and in the assay on HCT-116 was less than 4.70 throughout. In addition, the pIC50 (in the assay on NCI-H1299; in assay [1]; in the assay on PANC-1; in the assay with MDA-MB-231; with NCI-H460; in [2]) was less than 4.70 throughout. Also, the negative-log IC50 (pIC50) in the assay with BGC-823, with A-375, in the assay with HL-60, with U2OS, in the assay with A-431 and in the assay with HepG2 was less than 4.70 in each case.
As for `C/C(=C\[C@@H](O)[C@H](C)O)[C@H]1CC[C@H]2C3=CC(=O)[C@H]4CC(=CC[C@H](O)C4)[C@H]3CC[C@]12C` [NEOCYCLOCITRINOL C], the pIC50 in the assay on KYSE-450, with K562, with PC-3, in the assay with MCF7, with A549 and in the assay with HCT-116 was less than 4.70 throughout. In addition, the pIC50 (with NCI-H1299; in assay [1]; in the assay on PANC-1; in the assay with MDA-MB-231; in the assay with NCI-H460; in assay [2]) was less than 4.70 throughout. Besides, the pIC50 in the assay with BGC-823, in the assay with A-375, in the assay on HL-60, in the assay with U2OS, with A-431 and in the assay with HepG2 was less than 4.70 throughout. Moreover, the minimal effective concentration in assay [3] stood at 5 µM. Also, in the assay with BMSC [4], the Activity entry is “Dose-Dependent Effect”. Besides, the outcome with BMSC [6] was Active. For the same compound, 5 µM produced 78% inhibition in assay [7].
